Results from patent US20210171576A1, “METHODS FOR TREATING CANCER WITH ACYLDEPSIPEPTIDE ANALOGS” (priority 2018, published 2021).
Where a SMILES comes first, the peptide text is derived from it. Bridges are numbered along the chain shown (N, C = ends). [ ]: non-standard residue; d: D form. The star is where a group is joined. Octatrienoyl(2E,4E,6E) = C/C=C/C=C/C=C/C(=O)*; Phe(3,5-F2) = N[C@@H](Cc1cc(F)cc(F)c1)C(=O)O; Pip(4S-Me) = C[C@H]1CCN[C@H](C(=O)O)C1; Hexadienoyl(2E,4E) = C/C=C/C=C/C(=O)*; Pro(4R-Me) = C[C@H]1CN[C@H](C(=O)O)C1; Tiq1c(1S) = O=C(O)[C@H]1NCCc2ccccc21; X12 = O=C(/C=C/c1cccc(C(F)(F)F)c1)*; Heptenoyl(2E) = CCCC/C=C/C(=O)*; aThr = C[C@H](O)[C@H](N)C(=O)O; Pip = O=C(O)[C@@H]1CCCCN1; X2 = O=C(/C=C/CC1CCCCC1)*; NMeA = CN[C@@H](C)C(=O)O; X11 = O=C(/C=C/C=C/CO)*; Cbz = O=C(OCc1ccccc1)*; Dap = NC[C@H](N)C(=O)O; X3 = O=C(/C=C/CC1CC1)*; X6 = CCCC/C=C\C(=O)*; X5 = CCCCCC#CC(=O)*; X7 = CCC/C=C\C(=O)*; X8 = CCC/C=C/C(=O)*; X10 = CCCC#CC(=O)*; X9 = CCCCC#CC(=O)*

Biological target: T1, human mitochondrial CIpP (HsCIpP) (Homo sapiens, UniProt Q16740)
T1 construct: made in house; host or cells: E. coli SG1146 (BL21(DE3) ΔclpP::cat)
T1 sequence (Q16740 57-277): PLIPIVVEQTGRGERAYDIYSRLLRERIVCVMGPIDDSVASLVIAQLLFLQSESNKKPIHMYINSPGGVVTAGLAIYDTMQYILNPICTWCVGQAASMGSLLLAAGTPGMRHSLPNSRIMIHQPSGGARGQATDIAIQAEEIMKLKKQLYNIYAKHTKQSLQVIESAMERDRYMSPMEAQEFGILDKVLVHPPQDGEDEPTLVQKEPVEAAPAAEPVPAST
Test: Screen of ADEP analogs against HsCIpP: relative degradation (RD) index, casein-FITC degradation relative to E. coli CIpAP
Type: biochemical
Parameters: key: casein-FITC degradation by HsClpP relative to EcClpAP
Conditions: for Hs RD25: RD value at 25 μM of the ADEP analog, measure of ability to activate HsCIpP; for Hs RD1: RD value at 1 μM of the ADEP analog; for Hs RD5: RD value at 5 μM of the ADEP analog
Text: Structural analogs of acyldepsipeptide (ADEP) (Goodreid et al., 2016) that were previously developed as potential antibiotics against bacterial CIpP were screened and assessed for their ability to activate and dysregulate the protease activity of HsCIpP, by measuring their relative degradation (RD) index. Note that ADEP-28 was also previously reported by Carney et al. (2014). Details of the experimental protocol have been described in Leung et al., 2011. The RD index is defined as follows: […]
Δφ is the change in fluorescence after 6 hr of starting the reaction measured using 485 nm excitation and 535 nm emission, which primarily detects the signal from casein-FITC. E. coli CIpAP was used as a benchmark for maximum CIpP proteolytic activity. The CIpP in the numerator can be from any other organism. RD25 measurements refer to the measurement in the presence of 25 μM compound. All ADEP analogs were first screened at 25 μM, and their RD25 scores were calculated using the above formula and method as described in Leung et al., 2011 (FIG. 1A). Those that achieved RD25≥0.87 were screened a second time at 5 μM, followed by calculation of their RD5 scores. The top analogs with RD5≥0.74 were screened a third time at 1 μM, followed by calculation of their RD1 scores (FIG. 1B).
To identify ADEP analogs that allow HsCIpP to degrade folded proteins independent of HsCIpX+ATP (i.e., that activate or dysregulate HsCIpP), the inventors employed the in vitro screening method that was used for identifying small molecule activators of Escherichia coli CIpP (EcCIpP) (Leung et al., 2011). In this approach, the ability of HsCIpP to degrade FITC-labeled casein (casein-FITC) was measured and compared to the ability of EcCIpAP to degrade casein-FITC. This is quantitatively expressed as relative degradation (RD) index (Leung et al., 2011).

SMILES	Hs RD25	Hs RD1	Hs RD5
CCCC/C=C\C(=O)N[C@@H](Cc1ccccc1)C(=O)N[C@H]1COC(=O)[C@@H]2CCCN2C(=O)[C@H](C)NC(=O)[C@H](C)N(C)C(=O)[C@@H]2CCCN2C1=O [ADEP-19] (X6-FSP[NMeA]AP; ester 2-C)	0.34	–	–
C/C=C/C=C/C(=O)N[C@@H](Cc1ccccc1)C(=O)N[C@H]1COC(=O)[C@@H]2CCCN2C(=O)[C@H](C)NC(=O)[C@H](C)N(C)C(=O)[C@@H]2CCCN2C1=O [ADEP-26] ({Hexadienoyl(2E,4E)}-FSP[NMeA]AP; ester 2-C)	0.86	–	–
CCCC/C=C/C(=O)N[C@@H](Cc1ccccc1)C(=O)N[C@H]1COC(=O)[C@@H]2C[C@@H](C)CN2C(=O)[C@H](C)NC(=O)[C@@H]2CCCCN2C(=O)[C@@H]2CCCN2C1=O [ADEP-10]	1.07	0.44	0.85
CCCC/C=C/C(=O)N[C@@H](Cc1cc(F)cc(F)c1)C(=O)N[C@H]1COC(=O)[C@@H]2C[C@@H](C)CN2C(=O)[C@H](C)NC(=O)[C@H](C)N(C)C(=O)[C@@H]2CCCN2C1=O [ADEP-06] ({Heptenoyl(2E)}-[Phe(3,5-F2)]SP[NMeA]A[Pro(4R-Me)]; ester 2-C)	1.05	0.64	0.94
CCC/C=C/C(=O)N[C@@H](Cc1cccc(F)c1)C(=O)N[C@H]1COC(=O)[C@@H]2C[C@@H](C)CN2C(=O)[C@H](C)NC(=O)[C@@H]2CCCCN2C(=O)[C@@H]2CCCN2C1=O [ADEP-20]	1.04	0.53	0.90
CCCCC#CC(=O)N[C@@H](Cc1ccccc1)C(=O)N[C@H]1COC(=O)[C@@H]2CCCN2C(=O)[C@H](C)NC(=O)[C@H](C)N(C)C(=O)[C@@H]2CCCN2C1=O [ADEP-12] (X9-FSP[NMeA]AP; ester 2-C)	0.36	–	–
CCCCCC#CC(=O)N[C@@H](Cc1ccccc1)C(=O)N[C@H]1COC(=O)[C@@H]2CCCN2C(=O)[C@H](C)NC(=O)[C@H](C)N(C)C(=O)[C@@H]2CCCN2C1=O [ADEP-27] (X5-FSP[NMeA]AP; ester 2-C)	0.64	–	–
CCCC#CC(=O)N[C@@H](Cc1ccccc1)C(=O)N[C@H]1COC(=O)[C@@H]2CCCN2C(=O)[C@H](C)NC(=O)[C@H](C)N(C)C(=O)[C@@H]2CCCN2C1=O [ADEP-23] (X10-FSP[NMeA]AP; ester 2-C)	0.12	–	–
CCCC/C=C/C(=O)N[C@@H](Cc1c(F)c(F)c(F)c(F)c1F)C(=O)N[C@H]1COC(=O)[C@@H]2C[C@@H](C)CN2C(=O)[C@H](C)NC(=O)[C@@H]2CCCCN2C(=O)[C@@H]2CCCN2C1=O [ADEP-45]	0.29	–	–
C/C=C/C=C/C(=O)N[C@@H](Cc1ccccc1)C(=O)N[C@H]1COC(=O)[C@@H]2C[C@@H](C)CN2C(=O)[C@H](C)NC(=O)[C@H](C)N(C)C(=O)[C@@H]2CCCN2C1=O [ADEP-03] ({Hexadienoyl(2E,4E)}-FSP[NMeA]A[Pro(4R-Me)]; ester 2-C)	0.66	–	–
CCCC/C=C/C(=O)N[C@@H](Cc1cc(F)cc(F)c1)C(=O)N[C@H]1COC(=O)[C@@H]2C[C@@H](C)CN2C(=O)[C@H](C)NC(=O)[C@@H]2CCCN2C(=O)[C@@H]2CCCN2C1=O [ADEP-15]	1.05	0.58	0.92
C[C@@H]1C[C@H]2C(=O)OC[C@H](NC(=O)[C@H](Cc3ccccc3)NC(=O)/C=C/C=C/CO)C(=O)N3CCC[C@H]3C(=O)N(C)[C@@H](C)C(=O)N[C@@H](C)C(=O)N2C1 [ADEP-36] (X11-FSP[NMeA]A[Pro(4R-Me)]; ester 2-C)	0.00	–	–
C[C@@H]1NC(=O)[C@@H]2CCCCN2C(=O)[C@@H]2CCCN2C(=O)[C@@H](NC(=O)[C@H](Cc2ccccc2)NC(=O)c2ccc([N+](=O)[O-])cc2)COC(=O)[C@@H]2CCCN2C1=O [ADEP-24]	0.00	–	–
C/C=C/C=C/C=C/C(=O)N[C@@H](Cc1ccccc1)C(=O)N[C@H]1COC(=O)[C@@H]2C[C@@H](C)CN2C(=O)[C@H](C)NC(=O)[C@H](C)N(C)C(=O)[C@@H]2CCCN2C1=O [ADEP-05] ({Octatrienoyl(2E,4E,6E)}-FSP[NMeA]A[Pro(4R-Me)]; ester 2-C)	0.98	–	0.69
C[C@@H]1C[C@H]2C(=O)O[C@@H](C)[C@H](NC(=O)[C@H](Cc3cc(F)cc(F)c3)NC(=O)/C=C/c3cccc(C(F)(F)F)c3)C(=O)N3CCC[C@H]3C(=O)N3CC[C@H](C)C[C@H]3C(=O)N[C@@H](C)C(=O)N2C1 [ADEP-39] (X12-[Phe(3,5-F2)][aThr]P[Pip(4S-Me)]A[Pro(4R-Me)]; ester 2-C)	0.78	–	–
CCCC/C=C/C(=O)N[C@@H](Cc1ccccc1)C(=O)N[C@H]1COC(=O)[C@@H]2CCCN2C(=O)[C@H](C)NC(=O)[C@H](C)N(C)C(=O)[C@@H]2CCCN2C1=O [ADEP-01] ({Heptenoyl(2E)}-FSP[NMeA]AP; ester 2-C)	0.96	0.22	0.70
C[C@@H]1C[C@H]2C(=O)O[C@@H](C)[C@H](NC(=O)[C@H](Cc3cc(F)cc(F)c3)NC(=O)/C=C/CC3CC3)C(=O)N3CCC[C@H]3C(=O)N3CCCC[C@H]3C(=O)N[C@@H](C)C(=O)N2C1 [ADEP-13] (X3-[Phe(3,5-F2)][aThr]P[Pip]A[Pro(4R-Me)]; ester 2-C)	1.02	0.59	0.91
CCC/C=C\C(=O)N[C@@H](Cc1ccccc1)C(=O)N[C@H]1COC(=O)[C@@H]2CCCN2C(=O)[C@H](C)NC(=O)[C@H](C)N(C)C(=O)[C@@H]2CCCN2C1=O [ADEP-33] (X7-FSP[NMeA]AP; ester 2-C)	0.07	–	–
CCCC/C=C/C(=O)N[C@@H](Cc1cc(F)cc(F)c1)C(=O)N[C@H]1COC(=O)[C@@H]2C[C@@H](C)CN2C(=O)[C@H](C)NC(=O)[C@@H]2c3ccccc3CCN2C(=O)[C@@H]2CCCN2C1=O [ADEP-37] ({Heptenoyl(2E)}-[Phe(3,5-F2)]SP[Tiq1c(1S)]A[Pro(4R-Me)]; ester 2-C)	0.92	0.68	0.86
CCCC/C=C/C(=O)N[C@@H](Cc1cc(F)cc(F)c1)C(=O)N[C@@H]1C(=O)N2CCC[C@H]2C(=O)N2CCCC[C@H]2C(=O)N[C@@H](C)C(=O)N2C[C@H](C)C[C@H]2C(=O)O[C@H]1C [ADEP-29] ({Heptenoyl(2E)}-[Phe(3,5-F2)][aThr]P[Pip]A[Pro(4R-Me)]; ester 2-C)	0.92	0.76	0.87
C[C@@H]1NC(=O)[C@H](C)N(C)C(=O)[C@@H]2CCCN2C(=O)[C@@H](NC(=O)[C@@H](N)Cc2ccccc2)COC(=O)[C@@H]2CCCN2C1=O [ADEP-40] (H-FSP[NMeA]AP; ester 2-C)	0.00	–	–
CCCC/C=C/C(=O)N[C@@H](Cc1cc(F)cc(F)c1)C(=O)N[C@H]1CNC(=O)[C@@H]2C[C@@H](C)CN2C(=O)[C@H](C)NC(=O)[C@@H]2CCCCN2C(=O)[C@@H]2CCCN2C1=O [ADEP-32] ({Heptenoyl(2E)}-[Phe(3,5-F2)][Dap]P[Pip]A[Pro(4R-Me)]; lactam 2-C)	1.03	0.79	0.96
C[C@@H]1C[C@H]2C(=O)OC[C@H](NC(=O)[C@@H](N)Cc3ccccc3)C(=O)N3CCC[C@H]3C(=O)N(C)[C@@H](C)C(=O)N[C@@H](C)C(=O)N2C1 [ADEP-31] (H-FSP[NMeA]A[Pro(4R-Me)]; ester 2-C)	0.00	–	–
CCC/C=C/C(=O)N[C@@H](Cc1ccccc1)C(=O)N[C@H]1COC(=O)[C@@H]2CCCN2C(=O)[C@H](C)NC(=O)[C@H](C)N(C)C(=O)[C@@H]2CCCN2C1=O [ADEP-09] (X8-FSP[NMeA]AP; ester 2-C)	0.76	–	–
C[C@@H]1C[C@H]2C(=O)O[C@@H](C)[C@H](NC(=O)[C@H](Cc3cc(F)cc(F)c3)NC(=O)/C=C/CC3CCCCC3)C(=O)N3CCC[C@H]3C(=O)N3CCCC[C@H]3C(=O)N[C@@H](C)C(=O)N2C1 [ADEP-17] (X2-[Phe(3,5-F2)][aThr]P[Pip]A[Pro(4R-Me)]; ester 2-C)	1.02	0.86	0.91
C[C@@H]1NC(=O)[C@H](C)N(C)C(=O)[C@@H]2CCCN2C(=O)[C@@H](NC(=O)[C@H](Cc2ccccc2)NC(=O)OCc2ccccc2)COC(=O)[C@@H]2CCCN2C1=O [ADEP-22] (Cbz-FSP[NMeA]AP; ester 2-C)	0.00	–	–
